Laboratory results reported in patent US7001921B1, “Cell adhesion inhibitors” (Biogen Idec MA Inc., priority 1995, dated 2006).

Biological target: T1, VLA4 (Homo sapiens, UniProt P05556+P13612)
T1 construct: endogenous in cells; host or cells: Ramos cells
Test: Inhibition of VLA4-dependent adhesion to BSA-CS1 (labelled Ramos cells)
Type: cell-based
Conditions: binding of BCECF-AM labelled Ramos cells to CS1 peptide-coated wells, 2 mM MnCl2, 30 minutes at room temperature; IC50 range
Source text: For example, the cell adhesion inhibitory activity of these compounds may be measured by determining the concentration of inhibitor required to block the binding of VLA-4-expressing cells to fibronectin- or CS1-coated plates. In this assay microtiter wells are coated with either fibronectin (containing the CS-1 sequence) or CS-1. If CS-1 is used, it must be conjugated to a carrier protein, such as bovine serum albumin, in order to bind to the wells. Once the wells are coated, varying concentrations of the test compound are then added together with appropriately labelled, VLA-4-expressing cells. Alternatively, the test compound may be added first and allowed to incubate with the coated wells prior to the addition of the cells. The cells are allowed to incubate in the wells for at least 30 minutes. Following incubation, the wells are emptied and washed. Inhibition of binding is measured by quantitating the fluorescence or radioactivity bound to the plate for each of the various concentrations of test compound, as well as for controls containing no test compound.
VLA-4-expressing cells that may be utilized in this assay include Ramos cells, Jurkat cells, A375 melanoma cells, as well as human peripheral blood lymophocytes (PBLs). The cells used in this assay may be fluorescently or radioactively labelled.
This assay was used to assess the potency of VLA4-directed inhibitory compounds of this invention.
We dissolved BSA-SMCC (Pierce Chemical, Rockford, Ill.; Catalog # 77115) in H2O at a concentration of 10 mg/mL. [SEQ ID NO:4]: […](“Cys-Tyr-CS1 peptide”), which we synthesized by conventional solid phase chemistry and purified by HPLC, was dissolved in 10 mM HEPES pH 5, 50 mM NaCl and 0.1 mM EDTA also at a concentration of 10 mg/mL. We then mixed 500 μL of BSA-SMCC, 250 μL of Cys-Tyr-CS1 peptide and 75 μL of […] and allowed the conjugation reaction to proceed for 30 minutes. We stopped the reaction by adding 1 μL of beta-mercaptoethanol. Samples were analyzed for cross-linking by SDS-PAGE. This reaction produced multiple molecules of the Cys-Tyr-CS1 peptide conjugate to each BSA molecule.
We coated the wells of a Linbro titertek polystyrene 96-well flat bottom plate (Flow Laboratories, Maclean, Va.; catalog #76-231-05) with 100 μL of the above-described BSA-CS1 solution diluted to 1 μg/mL in 0.05 M NaHCO3 (15 mM NaHCO3, 35 mM Na2CO3) pH 9.2. Some wells were not coated with CS1 in order to assess non-specific cell binding (NSB). The plate was then incubated overnight at 4° C.
Following this incubation, the contents of the wells were removed by inverting and blotting the plate. All of the wells were then blocked with 100 μL of 1% BSA in PBS, 0.02% NaN3, for a minimum of one hour at room temperature.
3. Preparation of Fluorescently Labelled Ramos Cells Ramos cells are grown, maintained and labelled in RPMI 1640 culture medium containing 1% BSA. Just prior to running the assay, we added 2′,7′-bis-(2-carboxyethyl)5 (and -6) carboxyfluorescein acetoxymethyl ester (“BCECF-AM”; Molecular Probes Inc., Eugene, Oreg.; catalog #B-1150) to a final concentration of 2 μM to a culture of Ramos cells (4×10^6 cells/mL). We incubated the cells for 20 minutes at 37° C.
Following labelling, the cells were washed twice in assay buffer (24 mM TRIS, 137 mM NaCl, 2.7 mM KCl, pH 7.4, containing 0.1% BSA and 2 mM glucose) to remove any cations originating from the culture medium. The cells were then resuspended in assay buffer to 4×10^6 cells/mL and 2 mM MnCl2 was added to upregulate VLA4 on the surface of the cells.
Immediately prior to running the assay, we removed the BSA blocking solution from the 96-well plates and washed the wells with 100 μL of assay buffer. We then added to each well 25 μL of test cell adhesion inhibitory compound at 2× the final concentration and 25 μL of the labelled Ramos cells. Final concentrations were selected across a range of anticipated IC50s, usually between 0.01 nM–10 μM. […]

T1 sequence (P13612 34-1032): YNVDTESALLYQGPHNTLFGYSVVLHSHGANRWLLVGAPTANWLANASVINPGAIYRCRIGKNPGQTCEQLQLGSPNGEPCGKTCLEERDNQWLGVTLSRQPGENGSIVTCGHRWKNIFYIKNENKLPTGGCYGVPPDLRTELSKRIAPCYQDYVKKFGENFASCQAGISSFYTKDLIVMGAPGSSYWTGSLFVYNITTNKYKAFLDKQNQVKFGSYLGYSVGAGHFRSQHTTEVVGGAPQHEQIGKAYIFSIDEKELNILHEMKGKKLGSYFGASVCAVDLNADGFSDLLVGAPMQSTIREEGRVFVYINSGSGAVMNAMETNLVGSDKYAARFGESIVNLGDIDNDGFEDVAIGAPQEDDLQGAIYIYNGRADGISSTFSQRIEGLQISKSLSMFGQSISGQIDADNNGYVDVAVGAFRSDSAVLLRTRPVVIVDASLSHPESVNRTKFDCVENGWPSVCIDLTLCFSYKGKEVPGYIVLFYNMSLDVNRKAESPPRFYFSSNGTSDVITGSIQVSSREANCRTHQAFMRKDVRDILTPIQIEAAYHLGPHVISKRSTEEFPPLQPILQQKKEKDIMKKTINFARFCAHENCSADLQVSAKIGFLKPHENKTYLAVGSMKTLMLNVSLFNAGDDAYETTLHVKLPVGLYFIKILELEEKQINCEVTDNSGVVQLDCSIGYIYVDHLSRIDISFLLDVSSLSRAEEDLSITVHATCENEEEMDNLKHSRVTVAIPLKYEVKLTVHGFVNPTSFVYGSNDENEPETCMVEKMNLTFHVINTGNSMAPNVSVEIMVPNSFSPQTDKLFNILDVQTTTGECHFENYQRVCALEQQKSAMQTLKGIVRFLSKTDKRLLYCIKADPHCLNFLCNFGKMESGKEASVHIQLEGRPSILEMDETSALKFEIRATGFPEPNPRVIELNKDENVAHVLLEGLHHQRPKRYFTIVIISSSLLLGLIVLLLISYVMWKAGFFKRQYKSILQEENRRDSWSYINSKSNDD
T1 sequence (P05556 21-798): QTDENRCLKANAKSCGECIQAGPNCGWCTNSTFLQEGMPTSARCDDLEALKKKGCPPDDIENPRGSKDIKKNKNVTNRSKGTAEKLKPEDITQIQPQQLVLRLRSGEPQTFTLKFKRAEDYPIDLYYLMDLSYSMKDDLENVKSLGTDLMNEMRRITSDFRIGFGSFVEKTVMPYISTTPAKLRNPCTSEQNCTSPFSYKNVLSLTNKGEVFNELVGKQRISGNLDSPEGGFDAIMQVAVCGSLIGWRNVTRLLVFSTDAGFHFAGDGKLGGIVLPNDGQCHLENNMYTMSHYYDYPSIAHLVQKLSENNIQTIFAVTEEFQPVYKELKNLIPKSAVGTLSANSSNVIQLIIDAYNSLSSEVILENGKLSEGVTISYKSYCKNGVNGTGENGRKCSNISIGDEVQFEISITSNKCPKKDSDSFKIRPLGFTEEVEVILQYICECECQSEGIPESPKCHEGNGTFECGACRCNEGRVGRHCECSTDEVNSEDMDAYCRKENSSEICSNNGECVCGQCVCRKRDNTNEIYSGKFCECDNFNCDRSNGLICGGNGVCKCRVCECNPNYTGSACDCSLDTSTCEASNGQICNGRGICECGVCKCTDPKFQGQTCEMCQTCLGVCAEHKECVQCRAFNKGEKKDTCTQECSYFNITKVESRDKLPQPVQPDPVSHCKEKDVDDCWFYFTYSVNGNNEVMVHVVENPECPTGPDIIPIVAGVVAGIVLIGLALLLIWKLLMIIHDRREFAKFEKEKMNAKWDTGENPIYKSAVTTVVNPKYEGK

IC50, > 10 µM:
CC(C)CC(NC(=O)CCCCCNC(=O)Nc1ccccc1)C(=O)NC(CC(=O)O)c1ccccc1 (stereo not drawn) [compound 1106]
CC(C)CC(NC(=O)Cc1ccc2ccccc2c1)C(=O)NC(CC(=O)O)c1ccccc1 (stereo not drawn) [compound 1022]
CC(C)CC(NC(=O)Cc1ccc(NC(=O)Nc2ccccc2C(C)(C)C)cc1)C(=O)NC(CC(=O)O)c1ccc2c(c1)OCO2 (stereo not drawn) [compound 1209]
CC(C)CC(NC(=O)Cc1ccc(N)cc1)C(=O)NC(CC(=O)O)c1ccccc1 (stereo not drawn) [compound 1016]
CC(C)CC(NC(=O)Cc1ccc(C(F)(F)F)cc1)C(=O)NC(CC(=O)O)c1ccccc1 (stereo not drawn) [compound 1011]
CC(C)CC(NC(=O)Cc1cccc([N+](=O)[O-])c1)C(=O)NC(CC(=O)O)c1ccccc1 (stereo not drawn) [compound 1113]
CC(C)CC(NC(=O)Cc1ccccc1NC(=O)OCc1ccccc1)C(=O)NC(CC(=O)O)c1ccccc1 (stereo not drawn) [compound 1027]
CC(C)CC(NC(=O)Cc1ccc(N)cc1)C(=O)NC(CC(=O)O)c1ccccc1 (stereo not drawn) [compound 1103]
CC(C)CC(NC(=O)Cc1cccc(NC(=O)OCc2ccccc2)c1)C(=O)NC(CC(=O)O)c1ccccc1 (stereo not drawn) [compound 1031]
CC(C)CC(NC(=O)Cc1cccc(NC(=O)c2ccccc2)c1)C(=O)NC(CC(=O)O)c1ccccc1 (stereo not drawn) [compound 1020]
CCCC(NC(=O)Cc1ccccc1)C(=O)NC(CC(=O)O)c1ccccc1 (stereo not drawn) [compound 1038]
CC(C)CC(NC(=O)Cc1ccc(-c2ccccc2)cc1)C(=O)NC(CC(=O)O)c1ccccc1 (stereo not drawn) [compound 1009]
CC(C)CC(NC(=O)Cc1ccc(NC(=O)OCc2ccccc2)cc1)C(=O)NC(CC(=O)O)c1ccccc1 (stereo not drawn) [compound 1101]
COc1ccccc1C(CC(=O)O)NC(=O)C(CC(C)C)NC(=O)Cc1ccccc1 (stereo not drawn) [compound 1159]
CC(C)CC(NC(=O)CCCCCNC(=O)NC(C)(C)C)C(=O)NC(CC(=O)O)c1ccccc1 (stereo not drawn) [compound 1107]
CC(C)CC(NC(=O)Cc1ccccc1O)C(=O)NC(CC(=O)O)c1ccccc1 (stereo not drawn) [compound 1096]
CC(C)CC(NC(=O)Cc1ccc(O)cc1)C(=O)NC(CC(=O)O)Cc1ccccc1 (stereo not drawn) [compound 1143]
CC(C)CC(NC(=O)C1(c2ccccc2)CC1)C(=O)NC(CC(=O)O)c1ccc2c(c1)OCO2 (stereo not drawn) [compound 1188]
CC(C)CC(C(=O)NC(CC(=O)O)c1ccccc1)N(C)C(=O)Cc1ccccc1 (stereo not drawn) [compound 1114]
COC(C)C(NC(=O)Cc1ccccc1)C(=O)NC(CC(=O)O)c1ccccc1 (stereo not drawn) [compound 1117]

IC50, < 0.05 µM:
COc1ccc(C(CC(=O)O)NC(=O)C(CC(C)C)NC(=O)Cc2ccc(NC(=O)Nc3ccccc3C)cc2)cc1 (stereo not drawn) [compound 1190]
Cc1ccccc1NC(=O)Nc1ccc(CC(=O)NC(CCS(C)(=O)=O)C(=O)NC(CC(=O)O)c2ccc3c(c2)OCO3)cc1 (stereo not drawn) [compound 1245]
COc1ccc(C(CC(=O)O)NC(=O)C(CC(C)C)NC(=O)Cc2ccc(NC(=O)Nc3ccccc3)cc2)cc1 (stereo not drawn) [compound 1088]
Cc1ccccc1NC(=O)Nc1ccc(CC(=O)NC(CC(C)C)C(=O)NC(CC(=O)O)c2ccc(C(=O)O)cc2)cc1 (stereo not drawn) [compound 1321]
Cc1ccccc1NC(=O)Nc1ccc(CC(=O)NC(CC(C)C)C(=O)NC(CC(=O)O)c2ccc3c(c2)OCO3)cc1 (stereo not drawn) [compound 1179]
COc1cc(CC(=O)NC(CC(C)C)C(=O)NC(CC(=O)O)c2ccc3c(c2)OCO3)ccc1NC(=O)Nc1ccccc1C (stereo not drawn) [compound 1221]
Cc1ccccc1NC(=O)Nc1ccc(CC(=O)NC(CC(C)C)C(=O)NC(CC(=O)O)c2ccc3c(c2)OCO3)cc1 (stereo not drawn) [compound 1282]
CC(C)CC(NC(=O)Cc1ccc(NC(=O)Nc2ccccc2Cl)cc1)C(=O)NC(CC(=O)O)c1ccc2c(c1)OCO2 (stereo not drawn) [compound 1185]
COc1cc(CC(=O)NC(CC(C)C)C(=O)NC(CC(=O)O)c2ccc3c(c2)OCO3)ccc1NC(=O)Nc1ccccc1 (stereo not drawn) [compound 1056]
CC(C)CC(NC(=O)Cc1ccc(NC(=O)Nc2ccccc2C(C)C)cc1)C(=O)NC(CC(=O)O)c1ccc2c(c1)OCO2 (stereo not drawn) [compound 1206]

IC50, 0.05 to 10 µM:
COc1ccccc1C(CC(=O)O)NC(=O)C(CC(C)C)NC(=O)Cc1ccc(O)cc1 (stereo not drawn) [compound 1070]
COc1ccc(C(CC(=O)O)NC(=O)C(CC(C)C)NC(=O)Cc2ccc(O)cc2)cc1 (stereo not drawn) [compound 1173]
CN(C)C(=O)CC(NC(=O)Cc1ccc(NC(=O)Nc2ccccc2)cc1)C(=O)NC(CC(=O)O)c1ccc2c(c1)OCO2 (stereo not drawn) [compound 1214]
CC(=O)Nc1ccc(CC(=O)NC(CC(C)C)C(=O)NC(CC(=O)O)c2ccccc2)cc1 (stereo not drawn) [compound 1147]
COc1ccc(C(CC(=O)O)NC(=O)C(CC(C)C)NC(=O)Cc2ccc(NC(=O)Nc3cccnc3C)cc2)cc1 (stereo not drawn) [compound 1220]
CC(C)CC(NC(=O)Cc1ccc(Cl)cc1)C(=O)NC(CC(=O)O)c1ccccc1 (stereo not drawn) [compound 1010]
CC(C)CC(NC(=O)Cc1ccc(O)cc1)C(=O)NC(CC(=O)O)c1ccccc1 (stereo not drawn) [compound 1144]
COc1cccc(NC(=O)Nc2ccc(CC(=O)NC(CC(C)C)C(=O)NC(CC(=O)O)c3ccc4c(c3)OCO4)cc2)c1 (stereo not drawn) [compound 1078]
CC(C)CC(NC(=O)Cc1ccc(NC(=O)Nc2cccnc2)cc1)C(=O)NC(CC(=O)O)c1ccc2c(c1)OCO2 (stereo not drawn) [compound 1080]
COc1ccc(C(CC(=O)O)NC(=O)C(CCSC)NC(=O)Cc2ccccc2)cc1 (stereo not drawn) [compound 1175]
CC(C)CC(NC(=O)Cc1ccc(NC(=O)NC2CCCCC2)cc1)C(=O)NC(CC(=O)O)c1ccc2c(c1)OCO2 (stereo not drawn) [compound 1068]
COc1cc(CC(=O)NC(CC(C)C)C(=O)NC(CC(=O)O)c2ccccc2)c(Br)cc1O (stereo not drawn) [compound 1100]
CC(C)CC(NC(=O)CCc1ccc(NC(=O)Nc2ccccc2)cc1)C(=O)NC(CC(=O)O)c1ccccc1 (stereo not drawn) [compound 1052]
CC(C)CC(NC(=O)Cc1ccccc1)C(=O)NC(CC(=O)O)c1ccc2c(c1)CCC2 (stereo not drawn) [compound 1036]
O=C(O)CC(NC(=O)C(CCC(=O)N1CCOCC1)NC(=O)Cc1ccc(NC(=O)Nc2ccccc2)cc1)c1ccc2c(c1)OCO2 (stereo not drawn) [compound 1216]
Cc1cccc(NC(=O)Nc2ccc(CC(=O)NC(CC(C)C)C(=O)NC(CC(=O)O)c3ccc4c(c3)OCO4)cc2)c1 (stereo not drawn) [compound 1168]
CC(C)CC(NC(=O)Cc1ccc(NC(=O)c2ccccc2)cc1)C(=O)NC(CC(=O)O)c1ccc2c(c1)OCO2 (stereo not drawn) [compound 1075]
CC(C)CC(NC(=O)Nc1ccc(NC(=O)Nc2ccccc2)cc1)C(=O)NC(CC(=O)O)c1ccccc1 (stereo not drawn) [compound 1110]
CC(C)CC(NC(=O)Cc1ccc(NC(=O)Cc2ccccc2)cc1)C(=O)NC(CC(=O)O)c1ccccc1 (stereo not drawn) [compound 1023]
CC(C)CC(NC(=O)Cc1ccccc1)C(=O)NC(CC(=O)O)c1ccccc1 (stereo not drawn) [compound 1081]
CCc1ccccc1NC(=O)Nc1ccc(CC(=O)NC(CC(C)C)C(=O)NC(CC(=O)O)c2ccc(OC)cc2)cc1 (stereo not drawn) [compound 1208]
